Data set [1] relates to mitochondrial membrane potential of EHTs. Put plainly: Mitochondrial membrane potential (MMP) of EHTs by TMRE fluorescence. The data set is classed as cell-based, rat. An excerpt: The bottoms of the 8-well chambers were sealed with glass coverslips so that EHT cells could be observed using various optical instruments including microscopes and fluorescence plate readers in real time or after fixations. […] Mitochondria produce ATP via the electrochemical/osmotic gradient (˜180 mV) generated and maintained by the electron transport chain. Therefore, highly charged mitochondria produce ATP to support cardiac contractions.
Using a fluorescence plate reader (Synergy™ HT, BioTek U.S., Winooski, V T), we simultaneously measured TMRE's fluorescent signal (543 nm excitation/605±16 nm emission) and EHT contractions to determine the coupling between MMP and cardiac contractility. After a short (15-min) administration of 900 μM DNP (2,4-dinitrophenol), a potent uncoupler of MMP (FIG. 7F), to the EHTs MMP was reduced and cardiac contraction stopped (FIG. 7E).
Drug-induced cardiotoxicity often damages mitochondrial metabolic activity. We have developed additional assays for quantifying the mitochondrial membrane potential (MMP) of EHTs using the cationic potential metric dye tetramethylrhodamine ethyl ester (TMRE), and we are also assessing EHT viability using 3-(4,5-Dimethylthiazol-2-yl)-2,5-diphenyltetrazolium (MTT). An automated microplate reader was used to measure fluorescence or optical absorbance of these dyes. With these assays, we successfully screened for a small molecule that modulates cellular and tissue contractility without altering MMP and viability of cells (details in Lam, V. and T. Wakatsuki, Hydrogel Tissue Construct-Based High-Content Compound Screening. Journal of Biomolecular Screening, 2011. 16(1): p. 120-128.). Four test compounds were assayed: Rho kinase inhibitor (H1152), cytochalasin D (CD), 2,4-dinitrophenol (DNP), and rotenone (ROT). […] Assays to assess mitochondrial activity and metabolic parameters such as ATP concentrations, O2 consumption and free radical production have been measured using similar techniques, see e.g. Lam, V. and T. Wakatsuki, Hydrogel Tissue Construct-Based High-Content Compound Screening. […]

For data set [2], the system named is engineered heart tissues (EHTs). Put plainly: EHT contractility assay (cardiac twitch force, Palpator).
Source text: EHTs were fabricated with 1.75-2×10^6 cardiomyocytes/mL using MC-8™ system (InvivoSciences, LLC). The cardiomyocytes were obtained from neonatal rats and guinea pigs, or embryonic mice or chicken. Viable and spontaneously twitching EHTs were generally obtained by day 10 after fabrication. The EHTs were electrically stimulated (60 mV, 1 Hz) during mechanical testing. The mechanical properties of EHTs using the Palpator™ device (InvivoSciences, LLC). This automated device positions a force probe directly above the center of each well (FIG. 7A-i) and moves it vertically in two (or more) steps (FIG. 7A-ii, -iii) to stretch twice the EHT to 3.7% and 7.7% longitudinally. Cardiac twitch (systolic) force and resting (diastolic) force were measured during each step for 30 and 60 s. […] The peak rate at which the cardiac twitch force changes (FIG. 7C) also indicated the contractility (FIG. 7D) of the EHT much like the dP/dtmax of left ventricles measured by pressure catheters.
To validate the ability of our assay system to assess cardiotoxicity, we profiled the effects of anti-cancer agents (doxorubicin and daunorubicin) and beta-adrenoceptor agonist (isoproterenol), which are known to cause cardiotoxicity in clinical and experimental applications. […] After a 3-day incubation with doxorubicin (20 nM, 200 nM, or 1 μM) the EHTs were measured again and their viability was determined.
Data set [3] concerns cardiac fibroblasts / myofibroblasts (mFBs) in EHTs. Description: Elimination of puromycin-sensitive fibroblasts in EHTs. In kind it is cell-based, human. Set-up: effect on mFBs: dose or concentration left out as unconfirmed. An excerpt: We fabricated EHTs using CMs derived from mouse ES cells (Cor.AT, Axiogenesis) that express a puromycin resistance-GFP reporter gene fusion driven by a cardiac-specific (αMHC) promoter. These Cor.AT CMs (1.75×10^6) were co-cultured with cardiac fibroblasts (FBs) in a 1:1 ratio (See Asnes, C. F., et al., Reconstitution of the Frank-Starling mechanism in engineered heart tissues. Biophys J, 2006. 91(5): p. 1800-10) for developing a coherently contracting EHT. The EHTs were compressed by the FBs from a loose (6×6×3.5 mm^3) hydrogel into a compacted (˜3×2×0.5 mm^3) coherently contracting tissue in 5-7 days. […] The remodeling capacity of FBs was needed to fabricate compressed 3D tissues that can generate cardiac contraction synchronously. Upon achieving synchronous contraction, the cardiac twitch force was measured using the Palpator. […] We expected that application of a similar protocol to fabricate EHTs with iPSC-derived CMs should produce similar cardiac contractility since individual CMs derived from human ES cells, iPSCs, and native rat hearts produced equivalent degrees of cardiac contractility. Our results showing similar results for human ES cells is below.
An increasing density of cardiomyocytes (CMs) in the EHT constructs promoted intercellular contacts to form a synchronously contracting EHT while myofibroblasts (mFBs) remodeled and compressed the constructs. However, an overgrowth of mFBs limited survival of CMs. By regulating the mFB proliferation, cardiac contractility of EHTs without mFBs was maintained at least 10-50% longer than those with mFBs. […] The Cor.AT CMs (1.75×10^6) were co-cultured with mFBs in a 5:1 ratio using previously published method and developed a coherently beating EHT. The EHTs with mFBs were compressed from a loose (6×6×3.5 mm^3) hydrogel into a compacted (˜3×2×0.5 mm^3) tissue in 5-7 days (FIG. 15B). Varying numbers of mFBs were mixed with CMs (e.g., 0.1:1, 0.5:1 up to 1:1) to fabricate EHTs. […]

Setting [4] is: 900 μM, short (15-min) administration to EHTs.

For orientation: EC50 means the concentration at which the effect is half-maximal. Take `O=[N+]([O-])c1ccc(O)c([N+](=O)[O-])c1` [DNP, 2,4-dinitrophenol]: the “MMP (mitochondrial membrane potential)” value is given as “attenuated” in data set [1] (450 μM) and “reduced” in data set [1] (setting [4]). For the same compound, the half-maximal effective concentration (EC50) in data set [1] (rat EHT, FIG. 14, read-out: EC50 of MMP dissipation) turned out to be 340 µM. Moreover, the cardiac twitch force entry in data set [2] (450 μM) is “not reduced significantly”. Moreover, in data set [2] (setting [4]), the cardiac contraction result was “stopped”. Besides, the twitch force entry in data set [2] (increasing concentrations, FIG. 7E) is “reduced”.
As to `COc1ccc(C[C@H](N)C(=O)N[C@H]2[C@@H](O)[C@H](n3cnc4c(N(C)C)ncnc43)O[C@@H]2CO)cc1` [puromycin], in data set [3], the “effect on mFBs” value is reported as “eliminated”. Moreover, the “effect on puromycin sensitive FBs” value in data set [3] (5 μM, after compaction, EHTs with Cor.AT CMs) was “eliminated or their viability reduced”. Besides, the “effect on mFB in the EHTs” value in data set [3] (10 μM, Cor.AT myocytes with human cardiac myofibroblasts) is “eliminated”.
